Assay results taken from publication PMC8046379, “Fragment binding to the Nsp3 macrodomain of SARS-CoV-2 identified through crystallographic screening and computational docking” (Science Advances, 2021).

Key:
Assay type in all cases: binding
SARS-CoV-2 Nsp3 Mac1 [1] = biological target: T1, SARS-CoV-2 Nsp3 Mac1 (Severe acute respiratory syndrome coronavirus 2, UniProt P0DTD1); assay: biochemical; details: ADPr-peptide displacement from His6-Mac1; ± estimated SE
SARS-CoV-2 Nsp3 Mac1 [2] = biological target: T1, SARS-CoV-2 Nsp3 Mac1; details: fragments 0.188 to 3 mM concentration response
SARS-CoV-2 Nsp3 Mac1 [3] = biological target: T1, SARS-CoV-2 Nsp3 Mac1; assay: biochemical

Row | Compound | IC50 (SARS-CoV-2 Nsp3 Mac1 [1]) | effect on apparent melting temperature (Tma) in DSF, in words (SARS-CoV-2 Nsp3 Mac1 [2]) | Kd (SARS-CoV-2 Nsp3 Mac1 [3])
1 | Nc1nc2nccnc2c(=O)[nH]1 [pterin] | 784 µM | not identified as binders | 
2 | Cn1cnc2c(N)nc(N)nc21 [ZINC26180281] | > 2000 µM | stabilized Mac1 | 2900 ± 700 µM
3 | CN(CC1CCCOC1)c1ncc(O)cn1 (stereo not drawn) [ZINC1337772170] | 971 µM | not identified as binders | 
4 | Cc1c(C)n(Cc2ccco2)c2ncnc(N)c12 [ZINC3888754] |  | stabilized Mac1 | 
5 | adenosine diphosphate ribose [ADP-ribose, reference compound] |  | substantial elevation | 
